{
  "source": "paper PMC3726224",
  "about": "(Developmental cell, 2013)",
  "format_in_all_cases": "biochemical",
  "key": {"ALR": {"molecular_target": "ALR (Homo sapiens, UniProt P55789)", "sequence (P55789 whole entry)": "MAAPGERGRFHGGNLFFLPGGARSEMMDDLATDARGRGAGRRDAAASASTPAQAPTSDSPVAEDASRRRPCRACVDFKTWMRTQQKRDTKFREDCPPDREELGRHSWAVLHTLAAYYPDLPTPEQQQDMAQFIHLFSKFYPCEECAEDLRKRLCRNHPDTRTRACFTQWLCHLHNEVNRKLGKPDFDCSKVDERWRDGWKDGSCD", "assay": "Amplex Red-HRP sulfhydryl oxidase assay"}, "Erv1": {"molecular_target": "T1, Erv1 (Saccharomyces cerevisiae, UniProt P27882)", "T1 sequence (P27882 1-189)": "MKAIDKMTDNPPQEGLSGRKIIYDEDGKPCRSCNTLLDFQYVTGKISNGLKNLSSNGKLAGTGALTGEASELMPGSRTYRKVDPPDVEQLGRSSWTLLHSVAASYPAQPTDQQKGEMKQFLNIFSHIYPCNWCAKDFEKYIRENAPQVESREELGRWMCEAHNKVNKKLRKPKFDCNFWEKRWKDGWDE", "assay": "Amplex Red-HRP sulfhydryl oxidase assay with recombinant Erv1"}, "Erv2": {"molecular_target": "T2, Erv2 (Saccharomyces cerevisiae, UniProt Q12284)", "T2 sequence (Q12284 1-196)": "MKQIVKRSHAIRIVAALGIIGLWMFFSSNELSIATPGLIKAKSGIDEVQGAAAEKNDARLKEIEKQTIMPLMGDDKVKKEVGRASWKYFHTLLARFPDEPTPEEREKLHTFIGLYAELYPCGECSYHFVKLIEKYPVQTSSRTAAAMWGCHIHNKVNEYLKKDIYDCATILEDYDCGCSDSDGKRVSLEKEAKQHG", "assay": "Amplex Red-HRP sulfhydryl oxidase assay"}},
  "data": [
    {"compound": "Oc1c(Cl)cc(Cl)cc1C=Nc1ccc(Nc2ccccc2)cc1", "note": "[MitoBloCK-6]", "values": [
      {"measurement": "IC50", "setting": "ALR", "result": 700, "unit": "nM"},
      {"measurement": "IC50", "setting": "Erv1", "result": 900, "unit": "nM"},
      {"measurement": "IC50", "setting": "Erv2", "result": 1400, "unit": "nM"}
    ]}
  ]
}
